From ChEMBL document CHEMBL4825767, “Development of 2-(5,6,7-Trifluoro-1H-Indol-3-yl)-quinoline-5-carboxamide as a Potent, Selective, and Orally Available Inhibitor of Human Androgen Receptor Targeting Its Binding Function-3 for the Treatment of Castration-Resistant Prostate Cancer” (J Med Chem, 2021)

Assay: Half life in human liver microsomes at 2 uM in presence of NADPH measured up to 40 mins

## Fc1cc(Cl)c2[nH]cc(-c3ccc4ccccc4n3)c2c1
  half-life at 40 min, 2 µM: 23 min
